# Tested on: P12-Ichikawa
# Experiment: cell viability relative to DMSO control; higher = less cytotoxic
# Conditions: 48 h
# Outline: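 Viability was expressed as a per-plate percentage of DMSO wells, with cell-free wells as background. Leukemia cells (NOMO1 or SEM at 500 cells/well, P12-Ichikawa at 1000 cells/well) were adapted for at least four passages in each medium and seeded in 1536-well plates (5 μl). Library compounds in DMSO were pin-dosed over an 11-point threefold series from 47 μM to 0.79 nM, and CellTiter-Glo One luminescence was read after 48 h at 37°C.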
# [1] = HPLM + 10% dialyzed FBS, 0.000781 µM
# [2] = HPLM + 10% dialyzed FBS, 0.00234 µM
# [3] = HPLM + 10% dialyzed FBS, 0.00702 µM
# [4] = HPLM + 10% dialyzed FBS, 0.0211 µM
# [5] = HPLM + 10% dialyzed FBS, 0.0632 µM
# [6] = HPLM + 10% dialyzed FBS, 0.19 µM
# [7] = HPLM + 10% dialyzed FBS, 0.569 µM
# [8] = HPLM + 10% dialyzed FBS, 1.71 µM
# [9] = HPLM + 10% dialyzed FBS, 5.12 µM
# [10] = HPLM + 10% dialyzed FBS, 15.4 µM
# [11] = HPLM + 10% dialyzed FBS, 46.1 µM
# [12] = RPMI 5 mM glucose + 10% FBS, 0.000781 µM
# [13] = RPMI 5 mM glucose + 10% FBS, 0.00234 µM
# [14] = RPMI 5 mM glucose + 10% FBS, 0.00702 µM
# [15] = RPMI 5 mM glucose + 10% FBS, 0.0211 µM
# [16] = RPMI 5 mM glucose + 10% FBS, 0.0632 µM
# [17] = RPMI 5 mM glucose + 10% FBS, 0.19 µM
# [18] = RPMI 5 mM glucose + 10% FBS, 0.569 µM
# [19] = RPMI 5 mM glucose + 10% FBS, 1.71 µM
# [20] = RPMI 5 mM glucose + 10% FBS, 5.12 µM
# [21] = RPMI 5 mM glucose + 10% FBS, 15.4 µM
# [22] = RPMI 5 mM glucose + 10% FBS, 46.1 µM
# [23] = RPMI 5 mM glucose + 10% dialyzed FBS, 0.000781 µM
# [24] = RPMI 5 mM glucose + 10% dialyzed FBS, 0.00234 µM
# [25] = RPMI 5 mM glucose + 10% dialyzed FBS, 0.00702 µM
# [26] = RPMI 5 mM glucose + 10% dialyzed FBS, 0.0211 µM
# [27] = RPMI 5 mM glucose + 10% dialyzed FBS, 0.0632 µM
# [28] = RPMI 5 mM glucose + 10% dialyzed FBS, 0.19 µM
# [29] = RPMI 5 mM glucose + 10% dialyzed FBS, 0.569 µM
# [30] = RPMI 5 mM glucose + 10% dialyzed FBS, 1.71 µM
# [31] = RPMI 5 mM glucose + 10% dialyzed FBS, 5.12 µM
# [32] = RPMI 5 mM glucose + 10% dialyzed FBS, 15.4 µM
# [33] = RPMI 5 mM glucose + 10% dialyzed FBS, 46.1 µM
SMILES,cell viability [1],cell viability [2],cell viability [3],cell viability [4],cell viability [5],cell viability [6],cell viability [7],cell viability [8],cell viability [9],cell viability [10],cell viability [11],cell viability [12],cell viability [13],cell viability [14],cell viability [15],cell viability [16],cell viability [17],cell viability [18],cell viability [19],cell viability [20],cell viability [21],cell viability [22],cell viability [23],cell viability [24],cell viability [25],cell viability [26],cell viability [27],cell viability [28],cell viability [29],cell viability [30],cell viability [31],cell viability [32],cell viability [33]
c1ccc2c(Cc3c[nH]c4ccccc34)c[nH]c2c1,94.9%,101%,93.7%,95.8%,97%,95.4%,95.1%,91.1%,89.7%,87.4%,29.9%,100%,93.3%,95%,92.2%,82.2%,90.4%,86.7%,91.2%,88.7%,89.3%,32.8%,86%,94.3%,92.2%,84.8%,89.6%,92%,96.8%,94%,86.3%,85.2%,38%
Cc1nc2cc(C(=O)N3CCC4(CC3)CC(=O)c3c(cnn3C(C)C)C4)ccc2[nH]1,103%,121%,107%,120%,116%,119%,122%,110%,93.3%,112%,18%,–,–,–,–,–,–,–,–,–,–,–,–,–,–,–,–,–,–,–,–,–,–
C[C@@H](NCCCc1cccc(C(F)(F)F)c1)c1cccc2ccccc12,120%,123%,117%,125%,109%,118%,114%,118%,113%,100%,115%,–,–,–,–,–,–,–,–,–,–,–,–,–,–,–,–,–,–,–,–,–,–
Cc1nn(C)c(COc2ccc(N3CCN([S+](=O)([O-])N(C)C)CC3)cc2)c1-c1cccc2c(CCCOc3cccc4ccccc34)c(C(=O)O)n(CCN3CCOCC3)c12,92.3%,99.2%,97.4%,102%,103%,106%,107%,110%,29.9%,29.2%,28%,89.3%,107%,101%,97.7%,105%,107%,109%,113%,104%,109%,46.6%,87.5%,107%,104%,106%,112%,115%,120%,114%,96.1%,97.6%,36.7%
N[S+](=O)([O-])c1cc2c(cc1Cl)NC(C(Cl)Cl)N[S+]2(=O)[O-] (stereo not given),102%,109%,105%,112%,113%,118%,117%,120%,114%,123%,118%,114%,120%,111%,120%,126%,129%,127%,130%,139%,123%,128%,109%,117%,104%,118%,118%,122%,114%,124%,121%,122%,115%
C[C@H](CCC(=O)O)[C@H]1CCC2C3C[C@H](O)[C@@H]4C[C@H](O)CC[C@]4(C)C3CC[C@@]21C (stereo not given in full),106%,113%,101%,112%,126%,115%,97.3%,93.7%,107%,96.8%,108%,105%,126%,120%,114%,117%,108%,105%,105%,102%,104%,105%,98.7%,108%,103%,103%,108%,97.5%,96.9%,98.9%,105%,90.4%,94.9%
O=C(Nc1c[nH]nc1-c1nc2cc(CN3CCOCC3)ccc2[nH]1)NC1CC1,93.4%,101%,101%,97.6%,53.8%,12.7%,23.9%,38.5%,51.6%,36.5%,19.3%,97%,103%,101%,99.8%,59%,16%,38%,47.3%,45.1%,38.6%,14.1%,99%,98.6%,91.5%,102%,65.2%,24.8%,45.8%,58.5%,60.2%,46.5%,14.2%
CCN1C[C@H](C)[N]2C(=C(O)C3=C2\C(=N/N(CC4=CC=C(F)C(=C4)Cl)C3=O)C(=O)NC)C1=O,111%,116%,126%,102%,124%,121%,111%,97.4%,103%,107%,112%,103%,115%,115%,110%,113%,114%,111%,101%,101%,105%,94.7%,102%,105%,108%,116%,105%,101%,117%,108%,89.7%,92.4%,92.5%

# — the supplement of paper PMC11451515
